Consider three compounds from PubChem BioAssay (NCI).

Among the test systems are SK-MEL-5 melanoma; T-47D breast; SK-MEL-2 melanoma; TK-10 renal; SR leukemia; HCT-15 colon; MDA-MB-231 breast; A498 renal; UO-31 renal; LOX IMVI melanoma.
Experiment in all cases: growth of human tumour cells (NCI), 48 h

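A five-concentration, 48-hour dose response in 96-well plates underlies each endpoint, interpolated linearly between surrounding concentrations. TGI: concentration producing complete growth inhibition.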

For the compound `COC(=O)/C=C/c1ccccc1N=[S@](C)(=O)c1ccc(C)cc1`, the TGI in the assay with SK-MEL-5 melanoma is 38.3 µM; in the assay on T-47D breast it was more than 100 µM; in the assay on SK-MEL-2 melanoma, 70.7 µM; with TK-10 renal it was 71.9 µM; with SR leukemia, 26.7 µM; with HCT-15 colon, more than 100 µM. In addition, the TGI in the assay on MDA-MB-231 breast is 94.4 µM; in the assay with A498 renal, 43.8 µM; in the assay with UO-31 renal it was more than 100 µM; in the assay on LOX IMVI melanoma it was more than 100 µM.
Take `c1ccc(CNc2c3c(nc4ccccc24)CCC3)cc1`: the TGI was found to be 24.4 µM in the assay on SK-MEL-5 melanoma; 38.7 µM in the assay with T-47D breast; 27.2 µM in the assay on SK-MEL-2 melanoma; 33.6 µM with TK-10 renal; 38.9 µM in the assay on SR leukemia; 68.4 µM in the assay with HCT-15 colon. Besides, the TGI came to 27.1 µM in the assay on MDA-MB-231 breast, 31.7 µM in the assay on A498 renal, 25 µM with UO-31 renal and 28.4 µM in the assay with LOX IMVI melanoma.
In the case of `Cc1cnoc1NC1=CC(=O)C(=O)c2ccccc21`, the TGI in the assay with SK-MEL-5 melanoma is 12 µM; in the assay on T-47D breast it was more than 100 µM; in the assay on SK-MEL-2 melanoma, 10.5 µM; with TK-10 renal, more than 100 µM; in the assay with SR leukemia, more than 100 µM; with HCT-15 colon, more than 100 µM. Also, the TGI is more than 100 µM in the assay on MDA-MB-231 breast, more than 100 µM with A498 renal, 74.6 µM with UO-31 renal and more than 100 µM in the assay on LOX IMVI melanoma.
